Experimental data: ChEMBL document CHEMBL4651402, “Screening of ~5500 FDA-approved drugs and clinical candidates for anti-SARS-CoV-2 activity” (2021)

Test system: SARS-CoV-2
Assay: microbe, parasite or virus in culture
Conditions: Severe acute respiratory syndrome coronavirus 2, Vero C1008, 48 h

| SMILES | IC50 [µM] | IC50 (read-out: pIC50 (converted)) [µM] |
| --- | --- | --- |
| COc1ccccc1Oc1c(NS(=O)(=O)c2ccc(C(C)(C)C)cc2)nc(-c2ncccn2)nc1OCCO [BOSENTAN] | > 20 | > 20 |
| NC(C(=O)O)C(O)c1ccc(O)c(O)c1 (stereo unspecified) | > 20 | > 20 |
| O=S(=O)(O)CCS [2-MERCAPTOETHANESULFONIC ACID] | > 20 | > 20 |
| CC12CCC(O)CC1CCC1[C@@H]2CC(O)C2(C)C(C3=CC(=O)OC3)CCC12O (stereo partly specified) | > 20 | > 20 |
| CC12C=CC(=O)C=C1CCC1C2CCC2(C)C1CC[C@]2(C)O (stereo partly specified) | > 20 | > 20 |
| O=C(Nc1ccccc1)c1ccccc1O [SALICYLANILIDE] | > 20 | > 20 |
| NC1=NCC(c2ccccc2)O1 (stereo unspecified) [AMINOREX] | > 100 | > 100 |
| C[C@@H]1COC(Nc2ccc3ncnc(Nc4ccc(OCc5nccs5)c(Cl)c4)c3c2)=N1 [VARLITINIB] | > 20 | > 20 |
| OCC(O)Cc1ccc2c(c1)OCO2 (stereo unspecified) [SAFROLGLYCOL] | > 20 | > 20 |
| C[C@H]1Oc2cc(cnc2N)-c2c(nn(C)c2C#N)CN(C)C(=O)c2ccc(F)cc21 [LORLATINIB] | > 20 | > 20 |
| O=C1C2CC3CC1CC(O)(C3)C2 [IDRAMANTONE] | > 20 | > 20 |
| CC(CCc1ccccc1)NC(C)C(O)c1ccc(O)cc1 (stereo unspecified) [NYLIDRIN] | > 20 | > 20 |
| O=C(O)c1cccnc1Nc1cccc(C(F)(F)F)c1 [NIFLUMIC ACID] | > 20 | > 20 |
| CC[C@H]1CN2CCc3cc(OC)c(OC)cc3[C@@H]2C[C@@H]1C[C@H]1NCCc2cc(OC)c(OC)cc21 [EMETINE] | > 20 | > 20 |
| C=CC1=C(C)/C(=C/c2[nH]c(Cc3[nH]c(/C=C4\NC(=O)C(C)=C4C=C)c(C)c3CCC(=O)O)c(CCC(=O)O)c2C)NC1=O [BILIRUBIN] | > 20 | > 20 |
| CCn1c(C(=O)N(C2CC2)C2CC2)cc2c3c(ncn3C)c(Nc3cc(C)n(C)n3)nc21 [BMS-911543] | > 20 | > 20 |
| c1ccc2c(c1)CCCc1cc(NCCN3CCOCC3)nnc1-2 | > 20 | > 20 |
| O=c1cc2c(nn1-c1ccc(Cl)cc1)-c1ccccc1[S+]([O-])CC2 (stereo unspecified) | > 20 | > 20 |
| O=C(Nc1cccc2c(=O)cc(-c3nnn[nH]3)oc12)c1ccc(OCCCCc2ccccc2)cc1 | > 100 | > 100 |
| CCOC(=O)n1ccn(C)c1=S [CARBIMAZOLE] | > 20 | > 20 |
| CC1(COc2ccc3c(c2)ncn3-c2ccc3cccc(N4CCC(N)CC4)c3n2)COC1 [CRENOLANIB] | > 20 | > 20 |

| SMILES | IC50 [µM] | IC50 (read-out: pIC50 (converted)) [µM] |
| --- | --- | --- |
| O=C(O)Cc1csc(-c2ccc(Cl)cc2)n1 [FENCLOZIC ACID] | > 20 | > 20 |
| Clc1cccc(Cl)c1NC1=NCCN1 [CLONIDINE] | > 20 | > 20 |
| CN(NC(=O)CC(=O)NN(C)C(=S)c1ccccc1)C(=S)c1ccccc1 [ELESCLOMOL] | > 20 | > 20 |
| CCOC(=O)[C@H](CCc1ccccc1)CC1(C(=O)N[C@H]2CCc3ccccc3N(CC(=O)O)C2=O)CCCC1 | > 20 | > 20 |
| C[C@H](C#Cc1ccc(Cc2ccc(F)cc2)s1)N(O)C(N)=O [ATRELEUTON] | > 20 | > 20 |
| COc1cc(C(=O)N2CCOCC2)cc(OC)c1OC [TRIMETOZINE] | > 20 | > 20 |
| O=C(Nc1cc(Cl)cc(Cl)c1O)c1c(O)c(Cl)cc(Cl)c1Cl [OXYCLOZANIDE] | > 20 | > 20 |
| CNC(=O)Oc1cccc2ccccc12 [CARBARIL] | > 20 | > 20 |
| Cc1ncc([N+](=O)[O-])n1CC(O)CCl (stereo unspecified) [ORNIDAZOLE] | > 20 | > 20 |
| N[C@@H](C(=O)N[C@@H]1C(=O)N2C(C(=O)O)=C(Cl)CC[C@H]12)c1ccccc1 [LORACARBEF ANHYDROUS] | > 20 | > 20 |
| CCCCCCC(=O)OCCN1CCN(CCCN2c3ccccc3Sc3ccc(C(F)(F)F)cc32)CC1 [FLUPHENAZINE ENANTHATE] | > 20 | > 20 |
| COc1ccc(-c2coc3cc(O)ccc3c2=O)cc1 [FORMONONETIN] | > 20 | > 20 |
| O=c1c2ccccc2nc2n1CCCC2 | > 20 | > 20 |
| CC(C)c1nc(CN(C)C(=O)N[C@H](C(=O)N[C@@H](Cc2ccccc2)C[C@H](O)[C@H](Cc2ccccc2)NC(=O)OCc2cncs2)C(C)C)cs1 [RITONAVIR] | > 50.1 | > 50.1 |
| CCC1(C2OC(C3OC(O)(CO)C(C)CC3C)CC2C)CCC(C2(C)CCC3(CC(O)C(C)C(C(C)C(OC)C(C)C(=O)O)O3)O2)O1 (stereo unspecified) | > 10 | > 10 |
| CC(=O)OCC(=O)[C@@]1(O)CCC2C3CCC4=CC(=O)CCC4(C)C3C(O)CC21C (stereo partly specified) | > 20 | > 20 |
| COc1cc(C(=O)OC(COCCC(C)C)CN2CCOCC2)cc(OC)c1OC (stereo unspecified) [AMOPROXAN] | > 20 | > 20 |
| C=C[C@@H]1CN2CCC1C[C@@H]2[C@H](O)c1ccnc2ccccc12 (stereo partly specified) | > 20 | > 20 |
| CC(C)(C)NC(=O)c1nn(-c2ccc(F)cc2F)c2c1C1CCC2C1 (stereo unspecified) | > 20 | > 20 |
| CN1C[C@H](CNC(=O)OCc2ccccc2)C[C@@H]2c3cccc4c3c(cn4C)C[C@H]21 [METERGOLINE] | > 20 | > 20 |
| CC12C=CC(=O)C=C1CCC1C2CCC2(C)C(=O)CCC12 (stereo unspecified) | > 20 | > 20 |

| SMILES | IC50 [µM] | IC50 (read-out: pIC50 (converted)) [µM] |
| --- | --- | --- |
| CCOC(=O)OC(C)OC(=O)[C@@H]1N2C(=O)[C@@H](NC(=O)[C@H](N)c3ccccc3)[C@H]2SC1(C)C (stereo partly specified) [BACAMPICILLIN] | > 20 | > 20 |
| O=C(Cn1ccnc1[N+](=O)[O-])NCCO [ETANIDAZOLE] | > 20 | > 20 |
| CC(=O)N(C)C1(c2ccccc2)CCN(CCC[C@]2(c3ccc(Cl)c(Cl)c3)CCCN(C(=O)c3ccccc3)C2)CC1 [OSANETANT] | > 20 | > 20 |
| COc1ccc2c(c1)C=C1Cn3c-2c(C2CCCCC2)c2ccc(cc23)C(=O)NS(=O)(=O)N(C)CCOCCN(C)C1=O [TMC-647055] | > 20 | > 20 |
| NC(=O)c1nnn(Cc2cc(Cl)c(C(=O)c3ccc(Cl)cc3)c(Cl)c2)c1N [CARBOXYAMIDOTRIAZOLE] | > 20 | > 20 |
| CCCc1c(OCCCCCOc2cc3c(cc2C(C)=O)CCC(C(=O)O)O3)ccc(C(C)=O)c1O (stereo unspecified) [ABLUKAST] | > 20 | > 20 |
| c1ccc(CNc2ncnc3[nH]cnc23)cc1 [6-BENZYLAMINOPURINE] | > 20 | > 20 |
| CN[C@@H](C)[C@H](O)c1ccc(O)cc1 | > 20 | > 20 |
| CC(=O)OCC(=O)C1CCC2C3CC=C4CC(O)CCC4(C)C3CCC12C (stereo unspecified) | > 20 | > 20 |
| CC(C)[C@H](N)C(=O)OCC(CO)OCn1cnc2c(=O)[nH]c(N)nc21 (stereo partly specified) [VALGANCICLOVIR] | > 20 | > 20 |
| FC(F)(F)c1ccc2c(c1)N(CCCN1CCN(C3CC3)CC1)c1ccccc1S2 [CYCLOPHENAZINE] | > 20 | > 20 |
| O=C(O)CN(CCN(CC(=O)O)CC(=O)O)CCN(CC(=O)O)CC(=O)O [PENTETIC ACID] | > 20 | > 20 |
| COCCCOc1ccnc(C[S+]([O-])c2nc3ccccc3[nH]2)c1C (stereo unspecified) [RABEPRAZOLE] | > 20 | > 20 |
| O=c1cccc2n1C[C@@H]1CNC[C@H]2C1 [CYTISINICLINE] | > 20 | > 20 |
| COc1ccc(-c2nc(C(F)(F)F)[nH]c2-c2ccc(OC)cc2)cc1 [FLUMIZOLE] | > 20 | > 20 |
| COC(=O)C1=COC(C)C2CN3CCc4c([nH]c5ccccc45)C3CC12 (stereo unspecified) | > 20 | > 20 |
| CC(N)C12CC3CC(CC(C3)C1)C2 (stereo unspecified) [RIMANTADINE] | > 20 | > 20 |
| CC1OC(n2cc(F)c(=O)[nH]c2=O)C(O)C1O (stereo unspecified) | > 20 | > 20 |
| CCC(=O)O [PROPIONIC ACID] | > 20 | > 20 |
| CCn1c(=O)n(CCCN2CCN(c3cccc(Cl)c3)CC2)n[13c]1[13CH2][13CH3] | > 20 | > 20 |
| Cc1c(CN2CCN(C(=O)[C@H](C)O)CC2)sc2c(N3CCOCC3)nc(-c3cnc(N)nc3)nc12 [APITOLISIB] | > 20 | > 20 |
